Test results as given in patent publication US6803378B2, “HIV integrase inhibitors” (Bristol-Myers Squibb Company, priority 2000, dated 2004).

Columns and labels:
HIV Integrase [1] = molecular target: T1, HIV Integrase (Human immunodeficiency virus type 1 group M subtype B, UniProt P04585); assay: In vitro activity against integrase, Method B (SPA assay); format: biochemical; conditions: read-out: Percent inhibition of HIV Integrase at 70 uM
T1 construct: 0.26 ng of recombinant integrase was then incubated with the beads
Description: (§1) The in vitro activities, against integrase, of compounds of the present invention were measured by one of the following three methods.
(§2) In Method B, the in vitro activity against integrase was measured by binding, for each reaction, 5 pmole of biotin labeled substrate DNA to 100 ug of Streptavidin coated PVT SPA beads (Amersham Pharmacia Biotech). 0.26 ng of recombinant integrase was then incubated with the beads for 90 min at 37° C. Unbound enzyme was removed by washing the complex followed by addition of inhibitors and 0.1 fmol of P33 labeled target DNA. Reaction was stopped by adding EDTA to a final concentration of 10 mM. Samples were counted in TopCountNXT (Packard) and the CPM was used as a measure of integration. Reaction condition was as described in A. Engelman and R. Craigie, J. Virol. 69, 5908-5911 (1995). The sequences of substrate and target DNA were described in Nucleic Acid Research 22, 1121-1122 (1994).

HIV Integrase [2] = molecular target: T1, HIV Integrase; assay: In vitro activity against integrase, Method C (electroluminescence, ECL assay); format: biochemical; conditions: read-out: Percent inhibition of HIV Integrase at 70 uM
Description: as §1, §2
Method C (Electroluminesence Assay):
The ECL assay of Method C is essentially the same as the SPA assay of Method B, except that 0.5 μg of Streptavidin coated magnetic beads and 0.5 pmol Ru labeled target DNA were used for each reaction instead of SPA beads and P33 labeled DNA. The samples were read in a M8 analyzer (IGEN International, Inc).

HIV-1 integrase = molecular target: T2, HIV-1 integrase (Human immunodeficiency virus type 1 group M subtype B, UniProt P04585); assay: In vitro activity against integrase, Method A (immobilized precleaved substrate DNA, biotinylated target DNA, 96 well plate); format: biochemical; conditions: Assay Method A, read-out: Percent inhibition of HIV Integrase at 70 uM
T2 construct: Purified recombinant HIV-1 integrase was incubated with immobilized precleaved substrate DNA
Description: as §1
In Method A, the in vitro activity against integrase was measured in a manner which was similar to previously disclosed methods (cf. Hazuda, D. J.; Felock, P.; Witmer, M.; Wolfe, A.; Stillmock, K.; Grobler, J. A.; Espeseth, A.; Gabryelski, L.; Schleif, W.; Blau, C.; Miller, M. D. Science, 2000, 287, 646) Purified recombinant HIV-1 integrase was incubated with immobilized precleaved substrate DNA in a 96 well plate for 20 min at 37° C. After the integration complex was formed, compounds at desired concentrations were added to the wells followed by a 10 min incubation at 37° C. Biotinyted Target DNA was then added and the reaction was carried out for an additional 1 hour at 37° C. Wells were then washed thoroughly to remove any free DNA and integration activity was measured by using a commercial kit to quantitate the amount of biotinyted target DNA integrated into the substrate.

Row | Compound | melting point | inhibition at 70 µM (HIV Integrase [2]) [%] | other results
1 | O=C(O)/C(O)=C/C(=O)N(Cc1ccc(F)cc1)Cc1ccc(F)cc1 [Compound 11, 3-[Bis-(4-fluoro-benzyl)-carbamoyl]-2-hydroxy-acrylic acid] | > 147 °C (dec.) |  | inhibition at 70 µM (HIV Integrase [1]): 97%
2 | O=C(O)/C(O)=C/C(=O)N(CCc1ccncc1)Cc1ccc(F)cc1 [Compound 86, 3-[(4-Fluoro-benzyl)-(2-pyridin-4-yl-ethyl)-carbamoyl]-2-hydroxy-acrylic acid] |  | 97 | 
3 | O=C(O)/C(O)=C/C(=O)N(CCCc1ccccc1F)Cc1ccc(F)cc1 [Compound 51, 3-{(4-Fluoro-benzyl)-[3-(2-fluoro-phenyl)-propyl]-carbamoyl}-2-hydroxy-acrylic acid] |  | 100 | 
4 | CN(Cc1ccccc1Cl)C(=O)/C=C(\O)C(=O)O [Compound 10, 3-[(2-Chloro-benzyl)-methyl-carbamoyl]-2-hydroxy-acrylic acid] | 84 to 86 °C |  | inhibition at 70 µM (HIV-1 integrase): 79%
5 | CNC(=O)c1cccc(C(c2ccc(F)cc2)N(C)C(=O)/C=C(\O)C(=O)O)c1 (centres unmarked) [Compound 79, 3-{[(4-Fluoro-phenyl)-(3-methylcarbamoyl-phenyl)-methyl]-methyl-carbamoyl}-2-hydroxy-acrylic acid] |  | 90 | 
6 | O=C(O)/C(O)=C/C(=O)N(Cc1ccc(Cl)cc1)Cc1ccc(Cl)c(Cl)c1 | 152 °C (dec.) |  | 
